Data from US12611386B2, “Extended release pharmaceutical formulation” (Douglas Pharmaceuticals Ltd., priority 2020, dated 2026).
Where two headings read alike, the source gives them in different places.

What was measured:
TRD patients = conditions: Singh et al. 2016, cited from earlier work
[1] = system: patients with treatment-resistant depression and/or treatment-resistant anxiety (TRD/TRA); assay: Study ZPS-603 Cohort 4: mood ratings (HAMA, FQ, MADRS), open label multiple ascending dose; type: in vivo, human; conditions: injected drug in earlier treatment (FIG. 7)
Procedure: The objective of Cohort 4 was to evaluate efficacy, safety, PK and PD of an extended release ketamine oral formulation in patients with treatment-resistant depression and/or treatment-resistant anxiety (TRD/TRA). […] The design was an open label multiple ascending dose study. The initial dose was 60 mg, and could be escalated by an additional 60 mg 12 hourly, based on assessment of mood symptoms, to a maximum dose of 240 mg, with a total of 7 doses given 12 hourly between 0 and 72 hours. Endpoints included safety, tolerability, ketamine and norketamine PK, and PD (mood ratings including the Fear Questionnaire (FQ; Marks 1979), HAMA and MADRS, and dissociative symptom rating scale scores).

[2] = injected by any route of administration (e.g. Loo 2016); cited from earlier work

CNC1(c2ccccc2Cl)CCCCC1=O (stereo not shown) [IV ketamine, 2-(2-chlorophenyl)-2-(methylamino)cyclohexan-1-one]
TRD patients remitted (TRD patients; 0.5 mg/kg IV thrice weekly): 23.1% | TRD patients remitted (TRD patients; 0.5 mg/kg IV twice weekly for 15 days): 37.5% | onset of improvement of anxiety symptoms [1]: 1 to 2 h | duration of marked dissociative symptoms after dosing [2]: up to 60 minutes
